Results: the supplement of paper PMC4862054

Assays:
Experiment in all cases: normalised viability (% of control), CellTiter-Blue; higher = more viable cells (about 100 = DMSO control)
Conditions in all cases: incubation time: 72 h
HDQ-P1 [1] = system: HDQ-P1
Protocol: (§1)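 DSRT, CellTiter-Blue viability, 72 h incubation. Signal is normalised to DMSO and benzethonium chloride controls. Value is the normalised response at dose 6.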

MDA-MB-453 [2] = system: MDA-MB-453
Protocol: as §1

DU-4475 [3] = system: DU-4475
Protocol: as §1

CAL-148 [4] = system: CAL-148
Protocol: as §1

CAL-85-1 [5] = system: CAL-85-1
Protocol: as §1

CAL-51 [6] = system: CAL-51
Protocol: as §1

HDQ-P1 [7] = system: HDQ-P1; remark: listed apart in the source
Protocol: (§2)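 DSRT, CellTiter-Blue viability, 72 h incubation. Signal is normalised to DMSO and benzethonium chloride controls. Value is the normalised response at dose 8.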

MDA-MB-453 [8] = system: MDA-MB-453; remark: listed apart in the source
Protocol: as §2

DU-4475 [9] = system: DU-4475; remark: listed apart in the source
Protocol: as §2

CAL-148 [10] = system: CAL-148; remark: listed apart in the source
Protocol: as §2

CAL-85-1 [11] = system: CAL-85-1; remark: listed apart in the source
Protocol: as §2

CAL-51 [12] = system: CAL-51; remark: listed apart in the source
Protocol: as §2

Row | SMILES | normalised viability (HDQ-P1 [1]) | normalised viability (MDA-MB-453 [2]) | normalised viability (DU-4475 [3]) | normalised viability (CAL-148 [4]) | normalised viability (CAL-85-1 [5]) | normalised viability (CAL-51 [6]) | normalised viability (HDQ-P1 [7]) | normalised viability (MDA-MB-453 [8]) | normalised viability (DU-4475 [9]) | normalised viability (CAL-148 [10]) | normalised viability (CAL-85-1 [11]) | normalised viability (CAL-51 [12])
1 | COc1ncc(-c2ccc3nccc(-c4ccnnc4)c3c2)cc1NS(=O)(=O)c1ccc(F)cc1F (30 nM) | 30.4% | 12.1% | 63.6% | 43.7% | 50.4% | 33.1% |  |  |  |  |  | 
2 | COc1ncc(-c2ccc3nccc(-c4ccnnc4)c3c2)cc1NS(=O)(=O)c1ccc(F)cc1F (300 nM) |  |  |  |  |  |  | 21.2% | 4.39% | 37.8% | 6.61% | 17.9% | 6.4%
3 | C[C@@]1(C(=O)Nc2ccc(F)nc2)CCCN1c1nc(Nc2cc(C3CC3)n[nH]2)c2cccn2n1 (300 nM) | 50.3% | 84.6% | 77.7% | 95.7% | 65.7% | 88.3% |  |  |  |  |  | 
4 | C[C@@]1(C(=O)Nc2ccc(F)nc2)CCCN1c1nc(Nc2cc(C3CC3)n[nH]2)c2cccn2n1 (3000 nM) |  |  |  |  |  |  | 25.6% | 65.4% | 14.8% | 42.9% | 38.1% | 31.4%
5 | COc1c(C)cnc(Cn2cnc3c(Cl)nc(N)nc32)c1C [BIIB021] (300 nM) | 60.8% | 17.3% | 0.39% | 29.5% | 56.8% | 57.6% |  |  |  |  |  | 
6 | COc1c(C)cnc(Cn2cnc3c(Cl)nc(N)nc32)c1C [BIIB021] (3000 nM) |  |  |  |  |  |  | 33% | 6.99% | -0.3% | 17% | 22.9% | 10.2%
7 | CC(C)C[C@H](NC(=O)[C@H](Cc1ccccc1)NC(=O)c1cnccn1)B(O)O [Bortezomib] (30 nM) | 2.53% | 24% | 9.69% | 41% | 7.63% | 67.6% |  |  |  |  |  | 
8 | CC(C)C[C@H](NC(=O)[C@H](Cc1ccccc1)NC(=O)c1cnccn1)B(O)O [Bortezomib] (300 nM) |  |  |  |  |  |  | 1.48% | 19.3% | 0.52% | 9.74% | 2.25% | 1.35%
9 | CS(=O)(=O)OCCCCOS(C)(=O)=O [Busulfan] (3000 nM) | 83% | 99.9% | 76% | 114% | 106% | 92.8% |  |  |  |  |  | 
10 | CS(=O)(=O)OCCCCOS(C)(=O)=O [Busulfan] (30000 nM) |  |  |  |  |  |  | 102% | 117% | 91% | 107% | 96.5% | 100%
11 | C#Cc1cccc(Nc2ncnc3cc(OC)c(OCCCCCCC(=O)NO)cc23)c1 [CUDC-101] (300 nM) | 38.8% | 46% | 75.1% | 81.9% | 64.1% | 105% |  |  |  |  |  | 
12 | C#Cc1cccc(Nc2ncnc3cc(OC)c(OCCCCCCC(=O)NO)cc23)c1 [CUDC-101] (3000 nM) |  |  |  |  |  |  | 41.6% | 4.71% | 35% | 11.9% | 4.33% | 68%
13 | CC[C@@]1(O)C(=O)OCc2c1cc1n(c2=O)Cc2cc3ccccc3nc2-1 [Camptothecin] (150 nM) | 48.3% | 50.7% | 13.9% | 12.8% | 61% | 12.7% |  |  |  |  |  | 
14 | CC[C@@]1(O)C(=O)OCc2c1cc1n(c2=O)Cc2cc3ccccc3nc2-1 [Camptothecin] (1500 nM) |  |  |  |  |  |  | 31.6% | 21.5% | 0.88% | 1.27% | 25.1% | 4.85%
15 | COc1cccc2c1C(=O)c1c(O)c3c(c(O)c1C2=O)C[C@@](O)(C(C)=O)C[C@@H]3O[C@H]1C[C@H](N)[C@H](O)[C@H](C)O1 [Daunorubicin] (30 nM) | 74.9% | 93.7% | 64.7% | 59.5% | 94.6% | 54.5% |  |  |  |  |  | 
16 | COc1cccc2c1C(=O)c1c(O)c3c(c(O)c1C2=O)C[C@@](O)(C(C)=O)C[C@@H]3O[C@H]1C[C@H](N)[C@H](O)[C@H](C)O1 [Daunorubicin] (300 nM) |  |  |  |  |  |  | 52.7% | 76.1% | 33.6% | 48.7% | 53.8% | 31.2%
17 | CN1CCN(c2ccc3nc(-c4c(N)c5c(F)cccc5[nH]c4=O)[nH]c3c2)CC1 [Dovitinib] (300 nM) | 54.7% | 94.5% | 86.5% | 98.7% | 86.9% | 109% |  |  |  |  |  | 
18 | CN1CCN(c2ccc3nc(-c4c(N)c5c(F)cccc5[nH]c4=O)[nH]c3c2)CC1 [Dovitinib] (3000 nM) |  |  |  |  |  |  | 87.4% | 93.4% | 87.9% | 90.2% | 86.9% | 109%
19 | O=c1[nH]c(=O)n([C@H]2C[C@H](O)[C@@H](CO)O2)cc1F [Floxuridine] (300 nM) | 78.8% | 90.8% | 76% | 55.2% | 58.7% | 35% |  |  |  |  |  | 
20 | O=c1[nH]c(=O)n([C@H]2C[C@H](O)[C@@H](CO)O2)cc1F [Floxuridine] (3000 nM) |  |  |  |  |  |  | 80.1% | 71.8% | 97.9% | 44.8% | 42.9% | 22.8%
